Laboratory results: patent publication US11685719B2, “Pyridinone MK2 inhibitors and uses thereof” (Xinthera, Inc., priority 2021, dated 2023)

Tests used:
[1] = target: p38a/PRAK (Homo sapiens (Human), UniProt Q16539); experiment: biochemical; settings: 10-point 1:3 dilution, top dose 300 μM; 10 μM ATP, 2 h incubation; read-out: p38a/PRAK Enzyme pIC50 (converted)
Description: (§1) Expression vectors of the recombinant MK2 and PRAK kinases were constructed by cloning of the codon optimized gene sequences of MK2 (Uniprot ID P49137, amino acid fragment F46-H400), or PRAK (Uniprot ID Q81W41, amino acid fragment M1-Q471) into pGEX-4T1 (GE) for over expression of these kinases with N-terminal GST-tag. Protein expression was carried out in E. coli BL21 by growing the hosts in TB medium, induction of protein expression with 0.5 mM IPTG at approximate 0.8 OD600, and incubation of the cultures at 18° C. for 14-20 hours afterwards. The harvested cells were resuspended in […] of Lysis buffer (50 mM Tris-HCl, pH 8.0, 500 mM NaCl, 1 mM DTT, 5% glycerol, and 1 mM PMSF) per gram of wet cell mass and homogenized at 4° C. in a microfluidizer (ATS, Suzhou, China) at 14,000 psi pressure, 3 passes. The cell lysates were clarified by centrifugation and the supernatants containing the GST-fusion proteins were purified by affinity chromatography using GSH-Sepharose (GE) gravity flow columns pre-equilibrated in Buffer A (50 mM Tris-HCl, pH 8.0, 500 mM NaCl, 1 mM DTT, and 5% glycerol). After thorough washing of the columns with Buffer A, the bound GST-proteins were eluted by Buffer B (50 mM Tris, pH 8.0, 500 mM NaCl, 1 mM DTT, 5% glycerol, 10 mM glutathione), followed by size-exclusion purification on Superdex 200 column equilibrated in Buffer A. The purified proteins were concentrated to approximately 1 mg/ml and stored at −80° C.
(§2) This study evaluates the inhibitory potency of invention compound on p38/MK2 pathway vs p38/PRAK pathway. More specially the compound concentration (IC50) was determined that inhibited half of the maximal activation of MK2 or PRAK by p38. MK2 activation study was set up without or with a serial of 10-point 1:3 dilution of invention compound at top dose of 1 or 10 μM, and PRAK activation study was set up without or with a serial of 10-point 1:3 dilution of invention compound at top dose of 300 μM. The MIK2 and PRAK activity were determined by the phosphorylation level of HSP27 peptide conjugated with FITC.

[2] = target: p38a/MK2 (Homo sapiens (Human), UniProt P49137+Q16539); experiment: biochemical; settings: 10-point 1:3 dilution, top dose 1 μM; 10 μM ATP, 2 h incubation; read-out: p38a/MK2 (1 μM) Enzyme pIC50 (converted)
Description: as §1, §2

Chain of p38a/MK2 (Q16539 whole entry): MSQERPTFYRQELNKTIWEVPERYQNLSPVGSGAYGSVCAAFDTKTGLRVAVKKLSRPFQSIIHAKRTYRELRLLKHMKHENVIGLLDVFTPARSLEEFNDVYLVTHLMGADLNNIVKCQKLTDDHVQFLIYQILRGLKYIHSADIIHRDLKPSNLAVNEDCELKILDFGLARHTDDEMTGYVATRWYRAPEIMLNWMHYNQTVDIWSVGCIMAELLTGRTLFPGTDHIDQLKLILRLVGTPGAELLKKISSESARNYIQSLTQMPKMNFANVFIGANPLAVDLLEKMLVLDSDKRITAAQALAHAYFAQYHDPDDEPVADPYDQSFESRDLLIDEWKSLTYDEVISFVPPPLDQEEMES
Chain of p38a/MK2 (P49137 46-400): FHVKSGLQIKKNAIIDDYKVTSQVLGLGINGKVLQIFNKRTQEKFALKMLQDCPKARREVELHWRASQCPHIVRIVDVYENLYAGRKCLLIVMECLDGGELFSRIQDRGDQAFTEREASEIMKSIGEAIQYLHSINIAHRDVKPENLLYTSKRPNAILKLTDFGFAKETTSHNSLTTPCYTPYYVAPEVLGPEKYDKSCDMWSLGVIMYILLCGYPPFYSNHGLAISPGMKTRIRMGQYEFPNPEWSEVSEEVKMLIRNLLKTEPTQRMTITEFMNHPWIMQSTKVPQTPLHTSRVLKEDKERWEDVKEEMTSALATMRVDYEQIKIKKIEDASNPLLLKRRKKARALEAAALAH
Chain of p38a/PRAK (Q16539 whole entry, the tested form may be a part): as the sequence (Q16539 whole entry) above

Compound	IC50 [1]	IC50 [2]
Cc1ncc(-n2cccc(C(C)(C)O)c2=O)cc1-n1c(C)cc(OCc2ncc(F)cc2F)c(Cl)c1=O (single isomer, unassigned) [Example 16A, rel-5′-{3-chloro-4-[(3,5-difluoropyridin-2-yl)methoxy]-6-methyl-2-oxopyridin-1-yl}-3-(2-hydroxypropan-2-yl)-6′-methyl-[1,3′-bipyridin]-2-one]	7940 nM	200 nM
Cc1ccc(-n2cccc(C(C)(C)O)c2=O)cc1-n1c(C)cc(OCc2ncc(F)cc2F)c(Cl)c1=O (single isomer, unassigned) [Example 2B, rel-3-chloro-4-[(3,5-difluoropyridin-2-yl)methoxy]-1-{5-[3-(2-hydroxypropan-2-yl)-2-oxopyridin-1-yl]-2-methylphenyl}-6-methylpyridin-2-one]	> 316000 nM	> 1000 nM
Cc1cnc(-n2ccn(C(C)(C)CO)c2=O)cc1-n1c(C)cc(OCc2ncc(F)cc2F)c(Cl)c1=O (single isomer, unassigned) [Example 27B, rel-3-chloro-4-[(3,5-difluoropyridin-2-yl)methoxy]-2′-[3-(1-hydroxy-2-methylpropan-2-yl)-2-oxoimidazol-1-yl]-5′,6-dimethyl-[1,4′-bipyridin]-2-one]	794 nM	12.6 nM
Cc1cnc(-n2ccc(C)c(C(C)(C)O)c2=O)cc1-n1c(C)cc(OCc2ncc(F)cc2F)c(Cl)c1=O (single isomer, unassigned) [Example 15A, rel-3-chloro-4-[(3,5-difluoropyridin-2-yl)methoxy]-2′-[3-(2-hydroxypropan-2-yl)-4-methyl-2-oxopyridin-1-yl]-5′,6-dimethyl-[1,4′-bipyridin]-2-one]	2510 nM	10 nM
Cc1cnc(-n2cccc(C(C)(C)O)c2=O)cc1-n1c(C)cc(OCc2ncc(Cl)cc2F)c(Cl)c1=O (single isomer, unassigned) [Example 4B, rel-3-chloro-4-[(5-chloro-3-fluoropyridin-2-yl)methoxy]-2′-[3-(2-hydroxypropan-2-yl)-2-oxopyridin-1-yl]-5′,6-dimethyl-[1,4′-bipyridin]-2-one]	> 316000 nM	> 1000 nM
Cc1cnc(-n2ccnc(C(C)(C)O)c2=O)cc1-n1c(C)cc(OCc2ncc(F)cc2F)c(Cl)c1=O (single isomer, unassigned) [Example 5A, rel-3-chloro-4-[(3,5-difluoropyridin-2-yl)methoxy]-2′-[3-(2-hydroxypropan-2-yl)-2-oxopyrazin-1-yl]-5′,6-dimethyl-[1,4′-bipyridin]-2-one]	2510 nM	2.51 nM
[2H]C([2H])(Oc1cc(C)n(-c2cc(-n3ccnc(C(C)(C)O)c3=O)ncc2C)c(=O)c1Cl)c1ncc(Cl)cc1F (single isomer, unassigned) [Example 20B, rel-3-chloro-4-((5-chloro-3-fluoropyridin-2-yl)methoxy-d2)-2′-(3-(2-hydroxypropan-2-yl)-2-oxopyrazin-1(2H)-yl)-5′,6-dimethyl-2H-[1,4′-bipyridin]-2-one]	> 316000 nM	316 nM
Cc1cnc(-n2cccc(C3CCOCC3)c2=O)cc1-n1c(C)cc(OCc2ncc(F)cc2F)c(Cl)c1=O (single isomer, unassigned) [Example 8A, rel-3-chloro-4-[(3,5-difluoropyridin-2-yl)methoxy]-5′,6-dimethyl-2′-[3-(oxan-4-yl)-2-oxopyridin-1-yl]-[1,4′-bipyridin]-2-one]	2510 nM	0.794 nM
Cc1cnc(-n2nccc(C(C)(C)O)c2=O)cc1-n1c(C)cc(OCc2ncc(F)cc2F)c(Cl)c1=O (single isomer, unassigned) [Example 9A, rel-3-chloro-4-[(3,5-difluoropyridin-2-yl)methoxy]-2′-[5-(2-hydroxypropan-2-yl)-6-oxopyridazin-1-yl]-5′,6-dimethyl-[1,4′-bipyridin]-2-one]	2000 nM	12.6 nM
Cc1cnc(-n2cccc(C3CCOCC3)c2=O)cc1-n1c(C)cc(OCc2ncc(F)cc2F)c(Cl)c1=O (single isomer, unassigned) [Example 8B, rel-3-chloro-4-[(3,5-difluoropyridin-2-yl)methoxy]-5′,6-dimethyl-2′-[3-(oxan-4-yl)-2-oxopyridin-1-yl]-[1,4′-bipyridin]-2-one]	> 316000 nM	> 1000 nM
Cc1cnc(-n2cccc(C(C)(C)CO)c2=O)cc1-n1c(C)cc(OCc2ncc(F)cc2F)c(Cl)c1=O (single isomer, unassigned) [Example 11B, rel-3-chloro-4-[(3,5-difluoropyridin-2-yl)methoxy]-2′-[3-(1-hydroxy-2-methylpropan-2-yl)-2-oxopyridin-1-yl]-5′,6-dimethyl-[1,4′-bipyridin]-2-one]	> 316000 nM	> 1000 nM
Cc1cnc(-n2cc(C(C)(C)O)ccc2=O)cc1-n1c(C)cc(OCc2ncc(F)cc2F)c(Cl)c1=O (single isomer, unassigned) [Example 13B, rel-3-chloro-4-[(3,5-difluoropyridin-2-yl)methoxy]-2′-[5-(2-hydroxypropan-2-yl)-2-oxopyridin-1-yl]-5′,6-dimethyl-[1,4′-bipyridin]-2-one]	15800 nM	–
COCc1cc(OCc2ncc(F)cc2F)c(Cl)c(=O)n1-c1cc(-n2cccc(C(C)(C)O)c2=O)ncc1C (single isomer, unassigned) [Example 3A, rel-3-chloro-4-[(3,5-difluoropyridin-2-yl)methoxy]-2′-[3-(2-hydroxypropan-2-yl)-2-oxopyridin-1-yl]-6-(methoxymethyl)-5′-methyl-[1,4′-bipyridin]-2-one]	5010 nM	6.31 nM
[2H]C([2H])(Oc1cc(C)n(-c2cc(-n3ccnc(C(C)(C)O)c3=O)ncc2C)c(=O)c1Cl)c1ncc(C)cc1F (single isomer, unassigned) [Example 28B, rel-3-chloro-4-[(3-fluoro-5-methylpyridin-2-yl)(2H2)methoxy]-2′-[3-(2-hydroxypropan-2-yl)-2-oxopyrazin-1-yl]-5′,6-dimethyl-[1,4′-bipyridin]-2-one]	> 316000 nM	> 100 nM
Cc1cnc(-n2cccc(C(C)(C)O)c2=O)cc1-n1c(C)cc(OCc2ncc(Cl)cc2F)c(Cl)c1=O (single isomer, unassigned) [Example 4A, rel-3-chloro-4-[(5-chloro-3-fluoropyridin-2-yl)methoxy]-2′-[3-(2-hydroxypropan-2-yl)-2-oxopyridin-1-yl]-5′,6-dimethyl-[1,4′-bipyridin]-2-one]	5010 nM	2 nM
Cc1cnc(-n2cccc([C@@](C)(O)C3CC3)c2=O)cc1-n1c(C)cc(OCc2ncc(F)cc2F)c(Cl)c1=O (single isomer, unassigned) [Example 14B, rel-3-chloro-2′-[3-(1-cyclopropyl-1-hydroxyethyl)-2-oxopyridin-1-yl]-4-[(3,5-difluoropyridin-2-yl)methoxy]-5′,6-dimethyl-[1,4′-bipyridin]-2-one]	3160 nM	1.26 nM
[2H]C([2H])(Oc1cc(C)n(-c2cc(-n3ccnc(C(C)(C)O)c3=O)ncc2C)c(=O)c1Cl)c1ncc(F)cc1F (single isomer, unassigned) [Example 19B, rel-3-chloro-4-((3,5-difluoropyridin-2-yl)methoxy-d2)-2′-(3-(2-hydroxypropan-2-yl)-2-oxopyrazin-1(2H)-yl)-5′,6-dimethyl-2H-[1,4′-bipyridin]-2-one]	> 316000 nM	794 nM
Cc1cnc(-n2ccnc(C(C)(C)O)c2=O)cc1-n1c(C)cc(OCc2ncc(F)cc2F)c(Cl)c1=O (single isomer, unassigned) [Example 5B, rel-3-chloro-4-[(3,5-difluoropyridin-2-yl)methoxy]-2′-[3-(2-hydroxypropan-2-yl)-2-oxopyrazin-1-yl]-5′,6-dimethyl-[1,4′-bipyridin]-2-one]	> 316000 nM	> 1000 nM
Cc1cnc(-n2cccc(C(C)(C)O)c2=O)cc1-n1c(C)cc(OCc2ncc(F)cc2Cl)c(Cl)c1=O (single isomer, unassigned) [Example 7A, rel-3-chloro-4-[(3-chloro-5-fluoropyridin-2-yl)methoxy]-2′-[3-(2-hydroxypropan-2-yl)-2-oxopyridin-1-yl]-5′,6-dimethyl-[1,4′-bipyridin]-2-one]	7940 nM	1 nM
